Experimental data from patent publication US9328142B2, “Lipopeptide inhibitors of RAS oncoproteins” (The United States of America, as represented by The …, priority 2011, dated 2016).

How the values were obtained:
[1] = tested on: H23 lung adenocarcinoma cells (K-Ras mutant); assay: Growth inhibition, thoracic malignancy cell lines: H23; assay type: cell-based
[2] = tested on: H2009 lung adenocarcinoma cells (K-Ras mutant); assay: Growth inhibition, thoracic malignancy cell lines: H2009; assay type: cell-based
[3] = tested on: H358 broncheoalveolar cells (K-Ras mutant); assay: Growth inhibition, thoracic malignancy cell lines: H358; assay type: cell-based, human
[4] = tested on: HCC95 lung squamous cell carcinoma cells (K-Ras WT); assay: Growth inhibition, thoracic malignancy cell lines: HCC95; assay type: cell-based
[5] = tested on: HP-1 malignant pleural mesothelioma cells (K-Ras WT); assay: Growth inhibition, thoracic malignancy cell lines: HP-1; assay type: cell-based; conditions: HP-1, K-Ras WT
[6] = tested on: Calu3 lung adenocarcinoma cells (K-Ras WT); assay: Growth inhibition, thoracic malignancy cell lines: Calu3; assay type: cell-based
[7] = tested on: H157 lung squamous cell carcinoma cells (K-Ras mutant); assay: Growth inhibition, thoracic malignancy cell lines: H157; assay type: cell-based
[8] = tested on: HCC15 lung squamous cell carcinoma cells (K-Ras WT); assay: Growth inhibition, thoracic malignancy cell lines: HCC15; assay type: cell-based
[9] = tested on: H2882 lung adenocarcinoma cells (K-Ras WT); assay: Growth inhibition, thoracic malignancy cell lines: H2882; assay type: cell-based
[10] = tested on: A549 human lung cancer cell line harboring constitutively active Ras mutant; assay: MTT growth inhibition assay, A549; assay type: cell-based
Experimental: MCF-7 (breast cancer), T47D (breast cancer), Colo 205 (colon cancer), JM-1 (rat hepatoma), Sk Mel-2 (melanoma), PLC (human hepatoma), and HepG2 (human hepatoma) were obtained from American Type Cell Culture Collection. MCF-7 cells were grown in RPMI medium supplemented with 10% Fetal Bovine Serum. The remaining cell lines were grown in DMEM medium supplemented with 10% Fetal Bovine Serum. For the assay, cells were seeded into 96 well plates in medium containing 1% Fetal Bovine Serum and 100 μL of a cell suspension containing 5000 cells per well were used for each well. Cell growth was evaluated utilizing MTT ((3-(4,5-Dimethylthiazol-2-yl)-2,5-diphenyltetrazolium). The absorbance of the wells at 544 nm was determined by a FLUOstar/POLARstar Galaxy (BMG Lab Technologies GmbH) microplate reader.
The growth inhibitory activity of compounds was compared using the A549 human lung cancer cell line harboring constitutively active G12D Ras mutant with the help of an MTT assay. […] Stepwise extensions and truncations confirmed that the peptide had the optimal length (see Table 1).
The growth inhibitory activity of compounds was compared using the A549 human lung cancer cell line harboring constitutively active G12D Ras mutant with the help of an MTT assay.

[11] = tested on: H2373 malignant pleural mesothelioma cells (K-Ras WT); assay: Growth inhibition, thoracic malignancy cell lines: H2373; assay type: cell-based
[12] = tested on: H2596 malignant pleural mesothelioma cells (K-Ras WT); assay: Growth inhibition, thoracic malignancy cell lines: H2596; assay type: cell-based
[13] = tested on: H460 large cell carcinoma cells (K-Ras mutant); assay: Growth inhibition, thoracic malignancy cell lines: H460; assay type: cell-based, human
[14] = tested on: Calu 6 lung adenocarcinoma cells (K-Ras mutant); assay: Growth inhibition, thoracic malignancy cell lines: Calu 6; assay type: cell-based; conditions: Calu 6, K-Ras mutant
[15] = tested on: H2461 malignant pleural mesothelioma cells (K-Ras WT); assay: Growth inhibition, thoracic malignancy cell lines: H2461; assay type: cell-based
[16] = tested on: Ras protein in H2009 and H2592 cells; assay: Western blot of Ras protein amount in cancer cells; assay type: cell-based; conditions: 0-3.0 μM, 18 hours
Experimental: A further experiment was undertaken to determine the effect of analogs of helix 6 and HVR on the amount of K-Ras protein in cancer cells. H2009 (lung adenocarcinoma cells) and H2592 (plural mesothelioma cells) were exposed to varying concentrations (0-3.0 μM) of kR-4A-3, kR-4B-3, or kR-H6-3 for 18 hours. The cells then were lysed and the lysate was analyzed by Western blot using anti-Ras mAb (Cell Biolabs, Inc.).

[17] = target: K-Ras in H2592 cells (Homo sapiens, UniProt P01116); conditions: GI50 concentrations, 18 hours
From the text: Goat anti-mouse antibodies with Alexa Fluor TM 594 (red) were used to visualize the anti-Ras mouse mAb.

[18] = tested on: Ras-dependent cancer cells (H358, SKBR3, SKOV3, ID8, MPR-178); assay: MTT growth assay on Ras-dependent cancer cells; assay type: cell-based, human, murine; conditions: 48 hours, 1% FBS
Experimental: Ras-dependent cancer cells (H358 human lung cancer cells, SKBR3 human breast cancer cells, SKOV3 human ovarian cancer cells, ID8 murine ovarian cancer cells, and MPR-178 murine prostate cancer cells) were grown in DMEM medium containing 1% FBS and exposed to varying concentrations of Ras inhibitors (kR-H6-48 and HR-1) for 48 hours. Cell growth was evaluated utilizing an MTT ((3-(4,5-Dimethylthiazol-2-yl)-2,5-diphenyltetrazolium) assay. The absorbance of the wells at 544 nm was determined by a FLUOstar/POLARstar Galaxy (BMG Lab Technologies GmbH, Ortenberg, Germany) microplate reader. The assays were performed on untreated (control) and test cells. Cellular responses were calculated from the data using the following formula: 100×[(T−T0)/(C−T0)] for T>T0 and 100×[(T−T0)/T0] for T<T0, wherein T0 corresponds to cell density at the time of drug addition.

[19] = tested on: activated (GTP-bound) Ras in H358 human lung cancer cells; assay: Raf-RBD pull-down of active (GTP-bound) Ras; assay type: cell-based; conditions: 5 μM, varying exposure times
Experimental: H358 human lung cancer cells were grown in 6-well plates in DMEM medium containing 10% FBS. When the cells were about 70% confluent, the medium was replaced with DMEM containing 1% FBS. Two hours later, Ras inhibitors (kR-H6-48, HR-1, kR-4A-4, or kR-4B-2) were added to provide a final concentration of 5 μM.
After varying exposure times, the cells were rinsed with PBS and lysed. The lysates were cleared by centrifugation, incubated with immobilized Raf-RBD beads (which bind Ras) and analyzed by Western blot using manufacturer's protocols (Cytoskeleton, Inc., Denver, Colo.; Catalog No. BK008). The bands corresponding to active (GTP-bound) Ras were quantified with the help of MIPAV software.

[20] = tested on: Lewis lung carcinoma LL/2 (LLC1) cells; assay: Lewis lung carcinoma LLC1 isograft growth; assay type: in vivo, female CB57Bl/6 mice; conditions: 10 mg/kg s.c. near the tumor every second day
Experimental: Lewis lung carcinoma LL/2 (LLC1) (ATCC Catalog No. CRL-1642) cells were grown in DMEM medium containing 10% FBS. Cells were trypsinized and suspended in PBS. 3×10^6 LLC1 cells in 200 μl PBS were injected subcutaneously to the right flank of 8 weeks old female CB57Bl/6 mice.
Ras inhibitor injections started 2 weeks after LLC1 injections when tumors were at least 3 mm in diameter. For injections, solid kR-H6-48 was initially dissolved in DMSO to yield 20 mg/mL stock solution. DMSO stocks were diluted 20-fold in PBS pre-warmed to 35-37° C. 200 μl of the resulting solution (10 mg/kg dose) was injected subcutaneously near the tumor(s) every second day. The control group received 200 μl of 5% DMSO in PBS. Tumor size was measured with a caliper before each injection. The mice were sacrificed when the tumors reached maximal allowed size.

[21] = target: 15N-labeled truncated K-Ras (1-166) (Homo sapiens, UniProt P01116); conditions: 200 μM protein, 25° C., chemical shift perturbations Q25, N26, S32, T35, E37
Experimental: The titration was followed by NMR ^15N-edited HSQC spectra acquired on a 600 MHz Bruker spectrometer at 25° C.

[22] = A549, MTT, Table 2 HVR derivatives
[23] = A549, MTT, Table 1 helix 6 derivatives

| Substance | GI50 [1] [µM] | GI50 [2] [µM] | GI50 [3] [µM] | GI50 [4] [µM] | GI50 [5] [µM] | GI50 [6] [µM] | GI50 [7] [µM] | GI50 [8] [µM] | GI50 [9] [µM] | GI50 ([10]; A549, K-Ras mutant, Table 3) [µM] | GI50 [10, 22] [µM] | GI50 [11] [µM] | GI50 [12] [µM] | GI50 [13] [µM] | GI50 [14] [µM] | GI50 [15] [µM] | amount of Ras protein [16] | GI50 [10, 23] [µM] | further results |
| --- | --- | --- | --- | --- | --- | --- | --- | --- | --- | --- | --- | --- | --- | --- | --- | --- | --- | --- | --- |
| Ac-KKKKKKSKTKK-e-Pal [kR-4B-3] | 2.4 | 2.9 | 2 | 3.3 | 7.3 | 2.2 | 1.5 | 3.1 | 3 | 1.45 | 1.75 | 4.8 | 6.2 | 1 | 2.7 | > 10 | reduced the amount of Ras protein in lung cancer cells in a concentration-dependent manner |  |  |
| Ac-YRLKKISKEEKTPGLNVKIKKK-e-Pal [kR-4A-3] | 2.6 | 2.2 | 2.2 | 5.1 | > 10 | 5.9 | 2.4 | 7.4 | 4 | 3.1 | 1.9 | 6.1 | 8.2 | 1.5 | 3 | > 10 | reduced the amount of Ras protein in lung cancer cells in a concentration-dependent manner |  | Ras protein levels by immunostaining [17]: reduction in protein levels; pattern of K-Ras distribution [17]: lack of characteristic punctuate pattern of K-Ras distribution |
| Cap-YQRVQRVLTYFA (all D) [kR-H6-48] |  |  |  |  |  |  |  |  |  |  |  |  |  |  |  |  |  | 0.0008 ± 0.0005 | growth of Ras-dependent cancer cells (cell number, percent of control) [18]: growth inhibition of Ras-dependent cancer cells; GTP-bound Ras (fraction of control) [19]: reduction in activated (GTP-bound) Ras; LLC1 isograft growth [20]: inhibited LLC1 isograft growth |
| Pal-e-KAFYTLVREIRQYR [kR-H6-6] |  |  |  |  |  |  |  |  |  |  |  |  |  |  |  |  |  | 0.25 | site of interaction with K-Ras [21]: localized interaction of the peptide with the Switch I region of K-Ras |
